Test results as given in ChEMBL document CHEMBL5715260, “Selectivity Literature for EUbOPEN Chemogenomic Library” (2024).
Each block holds one molecule with its values, some of them ahead of it.

Legend:
[1] = biological target: Peroxisome proliferator-activated receptor alpha (Homo sapiens) (UniProt Q07869); assay: Selectivity interaction (Reporter gene assay) EUB0001149a PPARA; set-up: recommended concentration 1 uM; conditions: screened at recom. conc., Selectivity number of off-targets 1.0, Selectivity number of targets 19.0, Source Knowledge inhouse
Chain of Peroxisome proliferator-activated receptor alpha (Homo sapiens) (Q07869 whole entry): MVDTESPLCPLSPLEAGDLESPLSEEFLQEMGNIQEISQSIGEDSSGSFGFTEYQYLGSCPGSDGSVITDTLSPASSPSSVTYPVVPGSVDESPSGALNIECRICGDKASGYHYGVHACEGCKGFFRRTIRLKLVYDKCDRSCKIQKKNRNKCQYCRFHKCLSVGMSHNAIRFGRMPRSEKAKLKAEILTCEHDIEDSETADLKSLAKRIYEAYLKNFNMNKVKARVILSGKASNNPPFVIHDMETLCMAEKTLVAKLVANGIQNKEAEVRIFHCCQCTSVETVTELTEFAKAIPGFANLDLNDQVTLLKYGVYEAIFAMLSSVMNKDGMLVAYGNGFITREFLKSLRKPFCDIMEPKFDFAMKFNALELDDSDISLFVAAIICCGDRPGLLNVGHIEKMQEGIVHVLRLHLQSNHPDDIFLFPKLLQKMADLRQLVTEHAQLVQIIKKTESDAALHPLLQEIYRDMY

[2] = biological target: T1, Hepatocyte nuclear factor 4-alpha (Homo sapiens) (UniProt P41235); assay: Selectivity interaction (Reporter gene assay) EUB0001149a HNF4A; set-up: recommended concentration 1 uM
T1 sequence (whole entry): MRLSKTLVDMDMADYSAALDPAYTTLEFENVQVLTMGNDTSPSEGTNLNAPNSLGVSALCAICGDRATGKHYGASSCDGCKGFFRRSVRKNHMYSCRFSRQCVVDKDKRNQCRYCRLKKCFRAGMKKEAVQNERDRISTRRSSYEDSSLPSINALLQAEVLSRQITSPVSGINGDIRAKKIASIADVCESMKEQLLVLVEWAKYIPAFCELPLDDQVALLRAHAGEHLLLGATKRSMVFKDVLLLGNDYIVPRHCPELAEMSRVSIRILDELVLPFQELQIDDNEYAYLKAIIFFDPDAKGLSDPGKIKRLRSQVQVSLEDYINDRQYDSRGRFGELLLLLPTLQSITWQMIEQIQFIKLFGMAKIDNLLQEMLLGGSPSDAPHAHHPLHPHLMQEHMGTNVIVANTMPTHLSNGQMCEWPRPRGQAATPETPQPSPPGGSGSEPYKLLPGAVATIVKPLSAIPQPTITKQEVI

[3] = biological target: T2, Nuclear receptor subfamily 2 group C member 1 (Homo sapiens) (UniProt P13056); assay: Selectivity interaction (Reporter gene assay) EUB0001149a NR2C1; set-up: recommended concentration 1 uM
T2 sequence (whole entry): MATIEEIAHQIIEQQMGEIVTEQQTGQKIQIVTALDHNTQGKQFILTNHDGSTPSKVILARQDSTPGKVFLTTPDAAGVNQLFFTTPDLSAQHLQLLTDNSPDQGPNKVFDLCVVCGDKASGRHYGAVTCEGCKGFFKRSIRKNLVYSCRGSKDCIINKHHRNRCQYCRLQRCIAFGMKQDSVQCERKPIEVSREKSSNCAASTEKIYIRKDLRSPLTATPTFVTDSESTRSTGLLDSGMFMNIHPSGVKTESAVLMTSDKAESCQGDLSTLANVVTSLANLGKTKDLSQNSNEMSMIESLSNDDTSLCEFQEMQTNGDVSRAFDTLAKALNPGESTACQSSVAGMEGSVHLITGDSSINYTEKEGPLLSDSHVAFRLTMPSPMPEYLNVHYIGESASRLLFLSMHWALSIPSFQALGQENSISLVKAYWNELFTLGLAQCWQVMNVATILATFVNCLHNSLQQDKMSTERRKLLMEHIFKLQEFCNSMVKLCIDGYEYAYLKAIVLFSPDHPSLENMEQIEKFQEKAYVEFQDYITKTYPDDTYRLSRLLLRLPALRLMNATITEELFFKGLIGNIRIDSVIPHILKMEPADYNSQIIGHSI

[4] = biological target: Nuclear receptor subfamily 2 group E member 1 (Homo sapiens) (UniProt Q9Y466); assay: Selectivity interaction (Reporter gene assay) EUB0001149a NR2E1; set-up: recommended concentration 1 uM
Chain of Nuclear receptor subfamily 2 group E member 1 (Homo sapiens) (Q9Y466 whole entry): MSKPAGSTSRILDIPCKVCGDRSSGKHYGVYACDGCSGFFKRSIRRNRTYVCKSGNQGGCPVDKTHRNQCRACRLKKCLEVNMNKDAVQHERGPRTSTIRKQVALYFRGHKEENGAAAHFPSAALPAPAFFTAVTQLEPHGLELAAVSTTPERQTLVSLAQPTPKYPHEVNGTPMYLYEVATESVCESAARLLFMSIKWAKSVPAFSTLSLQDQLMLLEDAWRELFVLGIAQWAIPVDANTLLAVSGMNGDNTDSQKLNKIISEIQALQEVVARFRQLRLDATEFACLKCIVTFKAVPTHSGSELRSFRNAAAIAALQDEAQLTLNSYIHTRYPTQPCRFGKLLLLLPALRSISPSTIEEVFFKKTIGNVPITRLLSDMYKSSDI

[5] = biological target: Nuclear receptor subfamily 4immunitygroup A member 1 (Homo sapiens) (UniProt P22736); assay: Selectivity interaction (Reporter gene assay) EUB0001149a NR4A1; set-up: recommended concentration 1 uM
Chain of Nuclear receptor subfamily 4immunitygroup A member 1 (Homo sapiens) (P22736 whole entry): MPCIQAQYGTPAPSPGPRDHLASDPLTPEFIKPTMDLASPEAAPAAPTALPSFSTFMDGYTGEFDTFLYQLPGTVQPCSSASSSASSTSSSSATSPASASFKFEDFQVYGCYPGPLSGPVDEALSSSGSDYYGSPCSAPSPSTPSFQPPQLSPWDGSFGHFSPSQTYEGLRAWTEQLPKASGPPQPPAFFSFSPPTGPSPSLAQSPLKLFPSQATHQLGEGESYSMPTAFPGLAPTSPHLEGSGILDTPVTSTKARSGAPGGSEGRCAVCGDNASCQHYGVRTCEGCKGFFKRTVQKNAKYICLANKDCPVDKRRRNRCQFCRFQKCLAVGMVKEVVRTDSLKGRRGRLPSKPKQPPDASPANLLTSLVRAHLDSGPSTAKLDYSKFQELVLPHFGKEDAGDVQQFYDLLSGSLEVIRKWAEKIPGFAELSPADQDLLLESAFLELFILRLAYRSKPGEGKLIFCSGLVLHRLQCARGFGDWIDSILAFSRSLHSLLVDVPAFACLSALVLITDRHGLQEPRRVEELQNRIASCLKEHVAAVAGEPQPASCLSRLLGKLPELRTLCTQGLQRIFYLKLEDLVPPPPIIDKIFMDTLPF

[6] = biological target: Steroidogenic factor 1 (Homo sapiens) (UniProt Q13285); assay: Selectivity interaction (Reporter gene assay) EUB0001149a NR5A1; set-up: recommended concentration 1 uM
Chain of Steroidogenic factor 1 (Homo sapiens) (Q13285 whole entry): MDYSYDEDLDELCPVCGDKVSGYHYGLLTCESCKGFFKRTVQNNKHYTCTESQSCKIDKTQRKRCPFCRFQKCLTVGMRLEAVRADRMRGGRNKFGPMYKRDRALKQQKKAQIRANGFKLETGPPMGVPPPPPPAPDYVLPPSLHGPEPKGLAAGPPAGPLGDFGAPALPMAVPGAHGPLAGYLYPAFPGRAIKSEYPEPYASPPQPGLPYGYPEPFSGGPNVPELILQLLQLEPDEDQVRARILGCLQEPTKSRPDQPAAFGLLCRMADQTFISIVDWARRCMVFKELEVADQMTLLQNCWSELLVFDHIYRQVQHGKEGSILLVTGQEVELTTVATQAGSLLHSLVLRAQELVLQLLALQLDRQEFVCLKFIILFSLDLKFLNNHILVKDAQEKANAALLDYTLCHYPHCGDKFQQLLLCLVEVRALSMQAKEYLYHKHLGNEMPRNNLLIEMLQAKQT

[7] = biological target: T3, Alpha trans-inducing protein (Human alphaherpesvirus 1) (UniProt A0A5J6DW59); assay: Selectivity interaction (Reporter gene assay) EUB0001149a UL48; set-up: recommended concentration 1 uM
T3 sequence (A0A5J6DW59 as listed by the source): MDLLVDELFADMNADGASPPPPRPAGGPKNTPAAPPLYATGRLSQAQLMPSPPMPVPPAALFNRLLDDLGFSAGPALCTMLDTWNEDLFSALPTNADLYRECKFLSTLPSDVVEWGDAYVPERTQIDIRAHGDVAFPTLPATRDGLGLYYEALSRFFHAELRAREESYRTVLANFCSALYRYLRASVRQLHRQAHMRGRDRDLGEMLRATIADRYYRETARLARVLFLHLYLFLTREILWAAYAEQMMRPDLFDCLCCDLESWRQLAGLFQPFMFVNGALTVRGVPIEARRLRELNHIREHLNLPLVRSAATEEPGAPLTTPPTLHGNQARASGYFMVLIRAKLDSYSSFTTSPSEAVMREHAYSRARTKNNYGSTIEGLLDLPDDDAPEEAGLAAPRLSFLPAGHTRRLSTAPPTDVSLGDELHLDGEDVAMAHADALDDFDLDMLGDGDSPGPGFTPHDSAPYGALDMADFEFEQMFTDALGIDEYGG

[8] = biological target: T4, Retinoic acid receptor RXR-alpha (Homo sapiens) (UniProt P19793); assay: Selectivity interaction (Reporter gene assay) EUB0001149a RXRA; set-up: recommended concentration 1 uM; conditions: reference bexarotene 1 uM, Selectivity number of off-targets 0.0, Selectivity number of targets 1.0, Source Knowledge inhouse
T4 sequence (whole entry): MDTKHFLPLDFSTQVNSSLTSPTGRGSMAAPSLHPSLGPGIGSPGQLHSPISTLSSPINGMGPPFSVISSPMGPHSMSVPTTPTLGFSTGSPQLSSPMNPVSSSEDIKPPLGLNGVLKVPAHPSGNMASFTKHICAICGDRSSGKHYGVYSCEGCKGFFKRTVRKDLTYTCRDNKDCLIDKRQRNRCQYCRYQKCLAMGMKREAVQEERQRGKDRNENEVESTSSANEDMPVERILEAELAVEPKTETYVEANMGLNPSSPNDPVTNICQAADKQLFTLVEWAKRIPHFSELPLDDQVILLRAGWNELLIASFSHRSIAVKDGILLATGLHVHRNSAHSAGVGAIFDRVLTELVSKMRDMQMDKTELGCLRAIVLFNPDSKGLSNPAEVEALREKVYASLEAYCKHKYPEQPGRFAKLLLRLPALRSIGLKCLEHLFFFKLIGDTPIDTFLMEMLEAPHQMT

[9] = biological target: T2, Nuclear receptor subfamily 2 group C member 1 (Homo sapiens); assay: Selectivity interaction (Reporter gene assay) EUB0001152a NR2C1; set-up: recommended concentration 10 uM; conditions: screened at recom. conc., Selectivity number of off-targets 1.0, Selectivity number of targets 5.0, Source Knowledge inhouse
[10] = biological target: T1, Hepatocyte nuclear factor 4-alpha (Homo sapiens); assay: Selectivity interaction (Reporter gene assay) EUB0001152a HNF4A; set-up: recommended concentration 10 uM
[11] = biological target: Nuclear receptor subfamily 2 group E member 1 (Homo sapiens) (UniProt Q9Y466); assay: Selectivity interaction (Reporter gene assay) EUB0001152a NR2E1; set-up: recommended concentration 10 uM
[12] = biological target: Nuclear receptor subfamily 4immunitygroup A member 1 (Homo sapiens) (UniProt P22736); assay: Selectivity interaction (Reporter gene assay) EUB0001152a NR4A1; set-up: recommended concentration 10 uM
[13] = biological target: Steroidogenic factor 1 (Homo sapiens) (UniProt Q13285); assay: Selectivity interaction (Reporter gene assay) EUB0001152a NR5A1; set-up: recommended concentration 10 uM
[14] = biological target: T3, Alpha trans-inducing protein (Human alphaherpesvirus 1); assay: Selectivity interaction (Reporter gene assay) EUB0001152a UL48; set-up: recommended concentration 10 uM
[15] = biological target: T4, Retinoic acid receptor RXR-alpha (Homo sapiens); assay: Selectivity interaction (Reporter gene assay) EUB0001152a RXRA; set-up: recommended concentration 10 uM
[16] = biological target: T5, Peroxisome proliferator-activated receptor gamma (Homo sapiens) (UniProt P37231); assay: Selectivity interaction (Reporter gene assay) EUB0001151a PPARG; set-up: recommended concentration 1 uM; conditions: screened at recom. conc., Selectivity number of off-targets 1.0, Selectivity number of targets 19.0, Source Knowledge inhouse
T5 sequence (whole entry): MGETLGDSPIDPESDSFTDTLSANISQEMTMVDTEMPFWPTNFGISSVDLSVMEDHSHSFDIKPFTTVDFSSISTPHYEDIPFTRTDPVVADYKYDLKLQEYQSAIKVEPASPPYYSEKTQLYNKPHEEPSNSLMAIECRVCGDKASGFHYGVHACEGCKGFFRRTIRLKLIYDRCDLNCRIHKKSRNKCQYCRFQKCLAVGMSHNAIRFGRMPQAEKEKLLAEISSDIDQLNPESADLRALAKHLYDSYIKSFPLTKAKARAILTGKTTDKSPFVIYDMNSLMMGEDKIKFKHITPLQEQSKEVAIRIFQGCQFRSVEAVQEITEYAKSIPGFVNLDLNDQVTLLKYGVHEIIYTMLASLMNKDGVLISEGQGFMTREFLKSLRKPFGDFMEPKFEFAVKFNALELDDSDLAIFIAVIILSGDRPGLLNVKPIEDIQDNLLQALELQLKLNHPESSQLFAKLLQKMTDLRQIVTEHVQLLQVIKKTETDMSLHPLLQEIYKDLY

[17] = biological target: T1, Hepatocyte nuclear factor 4-alpha (Homo sapiens); assay: Selectivity interaction (Reporter gene assay) EUB0001151a HNF4A; set-up: recommended concentration 1 uM
[18] = biological target: T2, Nuclear receptor subfamily 2 group C member 1 (Homo sapiens); assay: Selectivity interaction (Reporter gene assay) EUB0001151a NR2C1; set-up: recommended concentration 1 uM
[19] = biological target: Nuclear receptor subfamily 2 group E member 1 (Homo sapiens) (UniProt Q9Y466); assay: Selectivity interaction (Reporter gene assay) EUB0001151a NR2E1; set-up: recommended concentration 1 uM
[20] = biological target: Nuclear receptor subfamily 4immunitygroup A member 1 (Homo sapiens) (UniProt P22736); assay: Selectivity interaction (Reporter gene assay) EUB0001151a NR4A1; set-up: recommended concentration 1 uM
[21] = biological target: Steroidogenic factor 1 (Homo sapiens) (UniProt Q13285); assay: Selectivity interaction (Reporter gene assay) EUB0001151a NR5A1; set-up: recommended concentration 1 uM
[22] = biological target: T3, Alpha trans-inducing protein (Human alphaherpesvirus 1); assay: Selectivity interaction (Reporter gene assay) EUB0001151a UL48; set-up: recommended concentration 1 uM
[23] = biological target: T4, Retinoic acid receptor RXR-alpha (Homo sapiens); assay: Selectivity interaction (Reporter gene assay) EUB0001151a RXRA; set-up: recommended concentration 1 uM; conditions: reference bexarotene 1 uM, Selectivity number of off-targets 0.0, Selectivity number of targets 1.0, Source Knowledge inhouse
[24] = biological target: T2, Nuclear receptor subfamily 2 group C member 1 (Homo sapiens); assay: Selectivity interaction (Reporter gene assay) EUB0001155a NR2C1; set-up: recommended concentration 10 uM; conditions: screened at recom. conc., Selectivity number of off-targets 2.0, Selectivity number of targets 5.0, Source Knowledge inhouse
[25] = biological target: Nuclear receptor subfamily 2 group E member 1 (Homo sapiens) (UniProt Q9Y466); assay: Selectivity interaction (Reporter gene assay) EUB0001155a NR2E1; set-up: recommended concentration 10 uM; conditions: screened at recom. conc., Selectivity number of off-targets 2.0, Selectivity number of targets 5.0, Source Knowledge inhouse
[26] = biological target: T1, Hepatocyte nuclear factor 4-alpha (Homo sapiens); assay: Selectivity interaction (Reporter gene assay) EUB0001155a HNF4A; set-up: recommended concentration 10 uM
[27] = biological target: Nuclear receptor subfamily 4immunitygroup A member 1 (Homo sapiens) (UniProt P22736); assay: Selectivity interaction (Reporter gene assay) EUB0001155a NR4A1; set-up: recommended concentration 10 uM
[28] = biological target: Steroidogenic factor 1 (Homo sapiens) (UniProt Q13285); assay: Selectivity interaction (Reporter gene assay) EUB0001155a NR5A1; set-up: recommended concentration 10 uM
[29] = biological target: T3, Alpha trans-inducing protein (Human alphaherpesvirus 1); assay: Selectivity interaction (Reporter gene assay) EUB0001155a UL48; set-up: recommended concentration 10 uM
[30] = biological target: T4, Retinoic acid receptor RXR-alpha (Homo sapiens); assay: Selectivity interaction (Reporter gene assay) EUB0001155a RXRA; set-up: recommended concentration 10 uM; conditions: reference bexarotene 1 uM, Selectivity number of off-targets 0.0, Selectivity number of targets 1.0, Source Knowledge inhouse
[31] = biological target: T1, Hepatocyte nuclear factor 4-alpha (Homo sapiens); assay: Selectivity interaction (Reporter gene assay) EUB0001150a HNF4A; set-up: recommended concentration 10 uM
[32] = biological target: T2, Nuclear receptor subfamily 2 group C member 1 (Homo sapiens); assay: Selectivity interaction (Reporter gene assay) EUB0001150a NR2C1; set-up: recommended concentration 10 uM
[33] = biological target: Nuclear receptor subfamily 2 group E member 1 (Homo sapiens) (UniProt Q9Y466); assay: Selectivity interaction (Reporter gene assay) EUB0001150a NR2E1; set-up: recommended concentration 10 uM
[34] = biological target: Nuclear receptor subfamily 4immunitygroup A member 1 (Homo sapiens) (UniProt P22736); assay: Selectivity interaction (Reporter gene assay) EUB0001150a NR4A1; set-up: recommended concentration 10 uM
[35] = biological target: Steroidogenic factor 1 (Homo sapiens) (UniProt Q13285); assay: Selectivity interaction (Reporter gene assay) EUB0001150a NR5A1; set-up: recommended concentration 10 uM
[36] = biological target: T3, Alpha trans-inducing protein (Human alphaherpesvirus 1); assay: Selectivity interaction (Reporter gene assay) EUB0001150a UL48; set-up: recommended concentration 10 uM
[37] = biological target: T4, Retinoic acid receptor RXR-alpha (Homo sapiens); assay: Selectivity interaction (Reporter gene assay) EUB0001150a RXRA; set-up: recommended concentration 10 uM; conditions: reference bexarotene 1 uM, Selectivity number of off-targets 0.0, Selectivity number of targets 1.0, Source Knowledge inhouse

Compound: CCOC(=O)N1CCC(CN(Cc2ccc(Cl)cc2)Cc2ccc([N+](=O)[O-])s2)C1 (configuration not stated)
Remaining activity [9]: 0.46 | Remaining activity [10]: 0.579 | Remaining activity [11]: 0.62 | Fold activation [12]: 1.3 | Remaining activity [13]: 0.905 | P-value [14]: 0.0179 | Relative activation [15]: 0.237%

Compound: CCCCCNC(=O)N1CCC(CN(Cc2ccc(Cl)cc2)Cc2ccc([N+](=O)[O-])s2)C1 (configuration not stated)
Remaining activity [24]: 0.487 | Remaining activity [25]: 0.483 | Remaining activity [26]: 0.711 | Fold activation [27]: 1.24 | Fold activation [28]: 1.16 | P-value [29]: 1.75e-05 | Relative activation [30]: 0.1%

Further lines, results first:

Fold activation [1]: 5.01 | Fold activation [2]: 1.19 | Remaining activity [3]: 0.743 | Remaining activity [4]: 0.755 | Fold activation [5]: 1.09 | Fold activation [6]: 1.16 | P-value [7]: 0.0075 | Relative activation [8]: 1.07%
Compound: O=C(O)CCCc1cc2cc(Cl)ccc2n1S(=O)(=O)c1ccc2ncsc2c1

Remaining activity [16]: 0.832 | Fold activation [17]: 1.25 | Fold activation [18]: 1.39 | Fold activation [19]: 1.11 | Fold activation [20]: 1.27 | Remaining activity [21]: 0.9 | P-value [22]: 0.0023 | Relative activation [23]: 0.596%
Compound: O=C(NCCS(=O)(=O)c1ccc(C(F)(F)F)cn1)c1ccc(Cl)cc1

Remaining activity [31]: 0.51 | Remaining activity [32]: 0.679 | Remaining activity [33]: 0.608 | Remaining activity [34]: 0.906 | Remaining activity [35]: 0.63 | P-value [36]: 0.0012 | Relative activation [37]: 0.476%
Compound: COC(=O)c1sccc1S(=O)(=O)Nc1ccc(Nc2ccccc2)cc1OC
